Measurements taken from patent US20170176412A1, “METHOD FOR PREDICTING OPTION OF DEPRESSION TREATMENT DRUG” (Human Metabolome Technologies Inc., priority 2014, published 2017).

Experiments:
[1] = system: blood PEA level of depressed patient; assay: Blood PEA level of depressed patients during continuous administration (Example 2); type: in vivo; conditions: for Blood PEA level Before administration: before administration in Example 1, patients with continuous administration; for Blood PEA level After continuous administration / Blood PEA level During continuous administration: continuous administration periods about 6 to 24 months
Procedure: Among the patients to whom the depression treatment drug was administered in Example 1, the patients who received continuous administration also after the period of Example 1 were investigated. The number of patients who received continuous administration of the SNRI was nine. On the other hand, the number of patients who received continuous administration of the SSRI was five. Although the continuous administration periods (including the administration period in Example 1) variably depended on the patients, they ranged from about 6 to 24 months. The blood PEA levels in the course of and after the end of the continuous administration of these patients were measured in the same procedure as in Example 1.
• t-test: Significant difference test of blood PEA level after continuous administration with respect to that before administration

[2] = system: blood PEA level of depressed patient; assay: Blood PEA level of depressed patients before and after administration of SNRI or SSRI (Example 1); type: in vivo; conditions: average value; for Blood PEA level After administration: after administration period of about 0.5 to 7 months; for Blood PEA level Before administration: baseline of the drug group, plasma, ion chromatography fluorescent detection
Procedure: After an informed consent was given to a patient who visited the clinic of the inventors, the patient's blood was collected. The blood PEA level was measured using an ion chromatography fluorescent detection method according to the following procedure. 50 μL of plasma and 450 μL of Milli-Q water were put in an Eppendorf tube and mixed by vortexing. The mixture was transferred to an ultrafiltration filter ([…] 5 kDa cut filter, Millipore Corporation), and subjected to centrifugal filtration (4° C., 9,100×g, 2 hours) until the solution in the filter disappeared. […] As subjects, 30 patients having the blood PEA levels ranging from 0.77 to 2.62 μM were employed. As a depression treatment drug, the SSRI or SNRT shown in Table 3 was administered to the patients. The blood PEA level after the administration was measured in the same procedure as before the administration. Although the administration periods variably depended on the patients, they ranged from about 0.5 to 7 months.

Structure (SMILES) | Blood PEA level Before administration [1] [µM] | Blood PEA level After continuous administration [1] [µM] | Blood PEA level During continuous administration [1] [µM] | Blood PEA level After administration [2] [µM] | Blood PEA level Before administration [2] [µM]
CNCC[C@H](Oc1cccc2ccccc12)c1cccs1 [Duloxetine, duloxetine] | 1.11 | 1.82 | 1.47 | 1.46 | 1.10
CN(C)CCC[C@@]1(c2ccc(F)cc2)OCc2cc(C#N)ccc21 [Escitalopram, escitalopram] | – | 1.73 | – | 1.22 | –
CCN(CC)C(=O)C1(c2ccccc2)CC1CN (stereo not drawn) [Milnacipran, milnacipran] | 1.44 | 1.94 | 1.71 | 1.66 | 1.27
Fc1ccc([C@@H]2CCNC[C@H]2COc2ccc3c(c2)OCO3)cc1 [Paroxetine, paroxetine] | – | – | – | 1.21 | 1.42
CN[C@H]1CC[C@@H](c2ccc(Cl)c(Cl)c2)c2ccccc21 [Sertraline, sertraline] | 1.39 | 1.47 | – | 1.26 | 1.39
